Several values for one entry are separate records, joined by “and”; a condition that tells them apart may be missing. Identical values can stand only once.
Legend:
CB1R D266ECL2E = biological target: T1, CB1R D266ECL2E (Homo sapiens, UniProt P21554, D266E); experiment: [3H]CP55,940 displacement assay, CB1R D266E mutant; assay type: binding
T1 construct: The WT CB1R and CB2R genes were subcloned into vector pcDNA3.1; HA signal peptide (N); expressed in transfected cells; host or cells: HEK293T (transient, membrane homogenates)
T1 sequence (P21554 whole entry D266E): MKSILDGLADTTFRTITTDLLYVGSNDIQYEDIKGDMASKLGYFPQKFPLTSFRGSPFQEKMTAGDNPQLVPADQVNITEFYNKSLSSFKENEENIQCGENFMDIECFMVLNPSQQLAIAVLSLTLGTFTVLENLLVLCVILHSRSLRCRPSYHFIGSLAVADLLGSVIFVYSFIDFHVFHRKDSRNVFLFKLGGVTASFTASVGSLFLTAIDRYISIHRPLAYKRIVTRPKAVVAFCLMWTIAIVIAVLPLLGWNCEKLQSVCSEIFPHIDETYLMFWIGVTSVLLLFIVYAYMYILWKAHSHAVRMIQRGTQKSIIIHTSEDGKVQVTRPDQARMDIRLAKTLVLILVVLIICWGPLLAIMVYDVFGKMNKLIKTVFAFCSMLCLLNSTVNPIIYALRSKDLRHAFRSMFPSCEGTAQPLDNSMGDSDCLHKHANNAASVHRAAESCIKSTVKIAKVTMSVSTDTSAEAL

CB2R-S285^7.39A = CB2R-S285^7.39A (Homo sapiens, UniProt P34972, S285A); experiment: [35S]GTPγS assay, CB2R S285A mutant; assay type: biochemical; conditions: S285A mutant; at 10 µM compared to WT; read-out: Emax (%)
Chain of CB2R-S285^7.39A (P34972 whole entry S285A): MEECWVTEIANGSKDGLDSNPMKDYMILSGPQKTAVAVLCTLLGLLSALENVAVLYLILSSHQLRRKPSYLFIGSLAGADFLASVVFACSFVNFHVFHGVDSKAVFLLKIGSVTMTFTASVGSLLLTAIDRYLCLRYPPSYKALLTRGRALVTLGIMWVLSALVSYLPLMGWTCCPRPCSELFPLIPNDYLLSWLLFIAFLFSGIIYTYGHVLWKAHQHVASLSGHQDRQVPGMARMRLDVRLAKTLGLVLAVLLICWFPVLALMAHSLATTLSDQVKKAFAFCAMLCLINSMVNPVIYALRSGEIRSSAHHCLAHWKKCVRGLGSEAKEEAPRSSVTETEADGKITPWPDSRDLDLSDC

CB2R-L182^ECL2I = CB2R-L182^ECL2I (Homo sapiens, UniProt P34972, L182I); experiment: [35S]GTPγS assay, CB2R L182I mutant; assay type: biochemical; conditions: L182I mutant; at 10 µM compared to WT; read-out: Emax (%)
Chain of CB2R-L182^ECL2I (P34972 whole entry L182I): as the sequence (P34972 whole entry S285A) above, with L182I, A285S counted along it

CB2R WT = CB2R WT (Homo sapiens, UniProt P34972); experiment: [3H]CP55,940 displacement assay, CB2R WT; assay type: binding; conditions: CB2R - WT, individual replicates
Chain of CB2R WT (P34972 whole entry): as the sequence (P34972 whole entry S285A) above, with A285S counted along it

CB2R-H95^2.65A = CB2R-H95^2.65A (Homo sapiens, UniProt P34972, H95A); experiment: [35S]GTPγS assay, CB2R H95A mutant; assay type: biochemical
Chain of CB2R-H95^2.65A (P34972 whole entry H95A): as the sequence (P34972 whole entry S285A) above, with H95A, A285S counted along it

CB2R-V261^6.51L = CB2R-V261^6.51L (Homo sapiens, UniProt P34972, V261L); experiment: [35S]GTPγS assay, CB2R V261L mutant; assay type: biochemical; conditions: for [35S]GTPγS binding: V2616.51L, individual replicates
Chain of CB2R-V261^6.51L (P34972 whole entry V261L): as the sequence (P34972 whole entry S285A) above, with V261L, A285S counted along it

CB2R-I110^3.29A = CB2R-I110^3.29A (Homo sapiens, UniProt P34972, I110A); experiment: [35S]GTPγS assay, CB2R I110A mutant; assay type: biochemical; conditions: for [35S]GTPγS binding: I1103.29A, individual replicates
Chain of CB2R-I110^3.29A (P34972 whole entry I110A): as the sequence (P34972 whole entry S285A) above, with I110A, A285S counted along it

CB2R-E181^ECL2D = CB2R-E181^ECL2D (Homo sapiens, UniProt P34972, E181D); experiment: [35S]GTPγS assay, CB2R E181D mutant; assay type: biochemical; conditions: E181D mutant; at 10 µM compared to WT; read-out: Emax (%)
Chain of CB2R-E181^ECL2D (P34972 whole entry E181D): as the sequence (P34972 whole entry S285A) above, with E181D, A285S counted along it

[1] = system: chronic abdominal pain associated with Crohn’s disease; conditions: 14 patients with chronic abdominal pain associated with Crohn’s disease; cited from earlier work
hCB2R = biological target: T2, hCB2R (Homo sapiens, UniProt P34972); experiment: [3H]RO6957022 displacement assay; assay type: binding; conditions: individual replicates
T2 construct: host or cells: CHO-K1 (CHOK1_hCB2bgal, PathHunter), membranes
T2 sequence (P34972 whole entry): as the sequence (P34972 whole entry S285A) above, with A285S counted along it

SMILES: CC(C)(C)[C@@H](CO)NC(=O)c1nn(-c2c[n+]([O-])ccn2)c2c1C[C@@H]1C[C@H]21 [APD371]
- Displacement (%) of [3H]CP55,940 (CB1R D266ECL2E; CB1R D266E, 10 µM compound): 12 ± 7%
- percentage specific [3H]CP55,940 binding (CB1R D266ECL2E; CB1R D266ECL2E, 10 µM ligand, replicates 1-3): 74.46 percentage and 89.45 percentage and 99.44 percentage
- Emax (CB2R-S285^7.39A): 49 ± 6%
- Emax (CB2R-L182^ECL2I): 17 ± 4%
- percentage specific [3H]CP55,940 binding (CB2R WT; log [ligand] (M) -5): 6.97% and 9.11% and 6.37%
- percentage specific [3H]CP55,940 binding (CB2R WT; log [ligand] (M) -6): 8.91% and 9.80% and 15.97%
- percentage specific [3H]CP55,940 binding (CB2R WT; log [ligand] (M) -7): 35.26% and 29.34% and 24.47%
- percentage specific [3H]CP55,940 binding (CB2R WT; log [ligand] (M) -8): 67.55% and 60.65% and 76.97%
- percentage specific [3H]CP55,940 binding (CB2R WT; log [ligand] (M) -9): 110.80% and 85.34% and 106.79%
- percentage specific [3H]CP55,940 binding (CB2R WT; log [ligand] (M) -10): 91.01% and 87.78% and 110.76%
- drop in potency compared to WT (CB2R-H95^2.65A; H95A mutant vs WT, [35S]GTPγS): 158 fold
- Emax (CB2R-H95^2.65A; H95A mutant, at 10 µM compared to WT, read-out: Emax (%)): 50 ± 1%
- drop in potency compared to WT (CB2R-V261^6.51L; V261L mutant vs WT, [35S]GTPγS): 10 fold
- Emax (CB2R-V261^6.51L; V261L mutant, at 10 µM compared to WT, read-out: Emax (%)): 6 ± 2%
- [35S]GTPγS binding (CB2R-V261^6.51L; log [ligand] (M) -5): 2.52 percentage of WT and 5.75 percentage of WT and 9.01 percentage of WT
- [35S]GTPγS binding (CB2R-V261^6.51L; log [ligand] (M) -6): -3.29 percentage of WT and 5.08 percentage of WT and 17.22 percentage of WT
- [35S]GTPγS binding (CB2R-V261^6.51L; log [ligand] (M) -7): 3.77 percentage of WT and -3.23 percentage of WT and 7.12 percentage of WT
- [35S]GTPγS binding (CB2R-V261^6.51L; log [ligand] (M) -8): -13.41 percentage of WT and -9.01 percentage of WT and -7.07 percentage of WT
- [35S]GTPγS binding (CB2R-V261^6.51L; log [ligand] (M) -9): -3.12 percentage of WT and -6.34 percentage of WT and -8.82 percentage of WT
- [35S]GTPγS binding (CB2R-V261^6.51L; log [ligand] (M) -10): 6.63 percentage of WT and -9.97 percentage of WT and -1.94 percentage of WT
- Emax (CB2R-I110^3.29A; I110A mutant, at 10 µM compared to WT, read-out: Emax (%)): 28 ± 9%
- [35S]GTPγS binding (CB2R-I110^3.29A; log [ligand] (M) -5): 8.02 percentage of WT and 49.60 percentage of WT and 23.20 percentage of WT and 29.78 percentage of WT
- [35S]GTPγS binding (CB2R-I110^3.29A; log [ligand] (M) -6): -6.90 percentage of WT and 31.60 percentage of WT and 8.00 percentage of WT and 14.76 percentage of WT
- [35S]GTPγS binding (CB2R-I110^3.29A; log [ligand] (M) -7): -11.72 percentage of WT and 23.80 percentage of WT and 1.10 percentage of WT and 21.50 percentage of WT
- [35S]GTPγS binding (CB2R-I110^3.29A; log [ligand] (M) -8): -18.83 percentage of WT and 1.40 percentage of WT and -5.80 percentage of WT and 9.14 percentage of WT
- [35S]GTPγS binding (CB2R-I110^3.29A; log [ligand] (M) -9): -17.87 percentage of WT and 6.80 percentage of WT and -8.60 percentage of WT and -1.19 percentage of WT
- [35S]GTPγS binding (CB2R-I110^3.29A; log [ligand] (M) -10): -16.57 percentage of WT and -10.00 percentage of WT and -2.40 percentage of WT and -10.68 percentage of WT
- Emax (CB2R-E181^ECL2D): 39 ± 6%
- abdominal pain scores [1]: improvement
- adverse events [1]: mild-to-moderate adverse events
- percentage specific [3H]RO6957022 binding (displacement) (hCB2R; log [agonist] (M) -5): 6.59% and 5.28% and -3.87%
- percentage specific [3H]RO6957022 binding (displacement) (hCB2R; log [agonist] (M) -6): 1.67% and 12.98% and 3.83%
- percentage specific [3H]RO6957022 binding (displacement) (hCB2R; log [agonist] (M) -7): 44.82% and 59.70% and 42.04%
- percentage specific [3H]RO6957022 binding (displacement) (hCB2R; log [agonist] (M) -7.5): 76.53% and 76.83% and 76.84%
- percentage specific [3H]RO6957022 binding (displacement) (hCB2R; log [agonist] (M) -8): 102.92% and 92.08% and 89.96%
- percentage specific [3H]RO6957022 binding (displacement) (hCB2R; log [agonist] (M) -9): 120.09% and 94.02% and 99.12%

— publication PMC10017709, “Structural basis of selective cannabinoid CB2 receptor activation” (Nature Communications, 2023)
